Laboratory results from patent publication US12257264B2, “Combination therapy for HIV with adenosine derivative and capsid inhibitors” (Brii Biosciences, Inc., priority 2021, dated 2025).
“And” between values parts separate entries of the source, which are not always exact repeats. Equal entries are not always repeated.

How the values were obtained:
[1] = test system: HIV-1 NL4-3 in MT-4 cells; assay: Two-drug combination antiviral cytoprotection (CPE) assay, MacSynergy II analysis; format: cell-based; details: HIV-1 NL4-3 virus in MT4 cells
Experimental: On the day preceding the assay, the cells were split 1:2 to assure they were in an exponential growth phase at the time of infection.
Combination cytotoxicity was evaluated in parallel on two identical assay plates (i.e., duplicate measurements) that included cell control wells.

[2] = Plasma exposures following oral administration to beagle dogs; details: for Prodrug formula 4-A Concentrations in Dog Plasma / EFdA Concentrations in Dog Plasma / concentration at 0.25 h / concentration at 0.5 h / concentration at 1 h: Prodrug formula 4-A PO 8.25 mg/kg; for concentration at 0.25 h / concentration at 0.5 h / concentration at 1 h: male, beagle, dog, in vivo, po, Prodrug formula 4-A Concentrations in Dog Plasma
[3] = Liver S9 stability and conversion to EFdA; format: in vitro ADME, human
Experimental: Intermediate solution: Dilute 5 μL of compounds or controls (7-ethoxycoumarin) from stock solution (10 mM) with 495 μL MeOH (Conc.: 100 μM, 1% DMSO, 99% MeOH). Stop solution: Cold ACN (including 100 ng/mL Tolbutamide and Labetalol as internal standard). Add 2 μL test compound or control working solution/well to all plates (T0, T5, T10, T20, T30, T60, NCF60) except matrix blank. Add 600 μL/well stop solution (cold in 4° C., including 100 ng/mL Tolbutamide/100 ng/mL Labetalol) to terminate the TO plate, then put it on ice. Dispense 840 μL/well S9 solution to 96-well plate as reservoir according to plate map. Then add 100 μL/well to every plate by Apricot. Incubate S9 solution and compound at 37° C. for about 10 min except NCF60 and TO. After adding S9 solution and 98 μLPB buffer to NCF60, incubate at 37° C. without pre-warming, start timer 1. After 60 min, add 600 μL/well stop solution to terminate the reaction. After pre-warming, dispense 760 μL/well cofactor solution to 96-well plate as reservoir according to plate map. Then add 98 μL/well to every plate by Apricot to start reaction. Incubate at 37° C., start timer 2, Add 600 μL/well stop solution (cold in 4° C., including 100 ng/mL Tolbutamide and Labetalol) to terminate the reaction. Samples are centrifuged at 4000 rpm for 20 min. While centrifuging, load 8×new 96-well plate with 300 μL HPLC water, then transfer 100 μL supernatant, mix with water for LC/MS/MS, transferred to Bioanalytical Services for LC-MS/MS analysis. Use equation of first order kinetics to calculate t1/2 and CL: Equation of first order kinetics: […]

Structure (SMILES): C#C[C@]1(COC(=O)OCc2oc(=O)oc2C)O[C@@H](n2cnc3c(N)nc(F)nc32)C[C@@H]1O [Formula 4-A, ((2R,3S,5R)-5-(6-amino-2-fluoro-9H-purin-9-yl)-2-ethynyl-3-hydroxytetrahydrofuran-2-yl)methyl ((5-methyl-2-oxo-1,3-dioxol-4-yl)methyl) carbonate]
- Antiviral activity upon combination with lenacapavir [1]: synergistic antiviral activity
- Prodrug formula 4-A Concentrations in Dog Plasma ([2]; 0.250 hrs, individual animals, 8.25 mg/kg): 1.63 ng/mL and 1.09 ng/mL
- Prodrug formula 4-A Concentrations in Dog Plasma ([2]; 0.500 hrs, individual animals, 8.25 mg/kg): BQL
- Prodrug formula 4-A Concentrations in Dog Plasma ([2]; 1.00 hrs, individual animals, 8.25 mg/kg): BQL
- Prodrug formula 4-A Concentrations in Dog Plasma ([2]; 2.00 hrs, individual animals): BQL
- Prodrug formula 4-A Concentrations in Dog Plasma ([2]; 4.00 hrs, individual animals): BQL
- Prodrug formula 4-A Concentrations in Dog Plasma ([2]; 6.00 hrs, individual animals): BQL
- Prodrug formula 4-A Concentrations in Dog Plasma ([2]; 8.00 hrs, individual animals): BQL
- EFdA Concentrations in Dog Plasma ([2]; 12.0 hrs, individual animals): BQL
- Prodrug formula 4-A Concentrations in Dog Plasma ([2]; 12.0 hrs, individual animals): BQL
- EFdA Concentrations in Dog Plasma ([2]; 24.0 hrs, individual animals): BQL
- Prodrug formula 4-A Concentrations in Dog Plasma ([2]; 24.0 hrs, individual animals): BQL
- EFdA AUC and Cmax compared with a dose-equivalent EFdA ([2]; dogs, oral): higher AUC and Cmax
- Prodrug detected in the systemic circulation ([2]; dogs, oral): minimal prodrug detected in the systemic circulation
- concentration at 0.25 h ([2]; 8.25 mg/kg, 0.250 hrs, Mean): 1.28 ng/mL
- concentration at 0.25 h ([2]; 8.25 mg/kg, 0.250 hrs, individual animals): 1.13 ng/mL
- concentration at 0.5 h ([2]; 8.25 mg/kg, 0.500 hrs, Mean): 1.68 ng/mL
- concentration at 0.5 h ([2]; 8.25 mg/kg, 0.500 hrs, individual animals): 1.68 ng/mL
- concentration at 1 h ([2]; 8.25 mg/kg, 1.00 hrs, Mean): 1.43 ng/mL
- concentration at 1 h ([2]; 8.25 mg/kg, 1.00 hrs, individual animals): 1.43 ng/mL
- Conversion to the target drug (EFdA) in liver S9 assay [3]: converted to the target drug efficiently
- Stability in Human Liver S9 Formation of EFdA ([3]; human liver S9): Yes
- half-life at 1 µM ([3]; human liver S9, 37° C.): < 50 min
